Laboratory results as given in patent US20130150399A1, “INHIBITORS OF THE UNFOLDED PROTEIN RESPONSE AND METHODS FOR THEIR USE” (The Board of Trustees of the Leland Stanford Junior …, priority 2006, published 2013).
Values joined by “and” are separate entries in the source; they are usually repeats but may differ in a detail not shown here. Identical values can stand only once.

Columns and labels:
[1] = tested on: PANC1 pancreatic adenocarcinoma cells; test: PANC1 tumor growth in vivo; parameters: species or system nude mice; settings: 60 mg/kg ip bolus every 48 hours, 5 doses
Method: Dose: 60 mg/kg ip bolus injection every 48 hours. 5 total doses. 5-7 tumors per group. PANC1 pancreatic adenocarcinoma cell line.
PANC1 pancreatic adenocarcinoma cells were implanted subcutaneously into nude mice. Mice were then given a bolus injection of one of the inventive irestatins (1401, 9337, 3611 or 9389) at a dose of 60 mg/kg every 48 hours for a total of 5 doses, with 5-7 tumors being treated per group.

XBP1-luciferase reporter = test: XBP-luciferase reporter high throughput screen / IRE IC50 (tunicamycin + thapsigargin induced); assay type: cell-based, human
Method: Specifically, HT1080 fibrosarcoma cells stably transfected with the unspliced XBP-1-luciferase reporter construct (3000/well) were plated onto a solid white 384 well microplate with a multidrop dispenser (40 μL per well). The plates were then placed into an automated incubator. After 24 hours of growth, a mixture of tunicamycin (1 μg/ml) and thapsigargin (100 nM) inducers were added, and candidate compounds were then added to the plates. After 24 hours, luciferase reagent (10 μl) was added to each well and the plates were read in a Molecular Devices Analyst GT (0.2 second read per well).
As described above in Example 2, HT1080 fibrosarcoma cells stably expressing the XBP-luciferase reporter were plated in a 384 well microplate (4000 cells/well). After 24 hours, cells were treated with a mixture of tunicamycin (4 μg/ml) and thapsigargin (0.4 μM), followed by the addition of one compound per well (10 μM). We screened a total of 66,000 diverse molecules obtained from Specs, Chembridge and ChemRX. Twenty-four hours post-induction, BriteGlo luciferase substrate (10 μl) was added to each well and the signal intensity determined in a plate reader (0.2 s read per well). […] We retested 431 compounds from the initial screen, and selected 58 compounds for additional analysis, including calculation of IC50 values and inhibition of a CMV-luciferase reporter.
Compounds of the screening library with structural similarity to compound 9389 (see Table 1) have been identified and in some cases further assayed for inhibitory activity. Compounds listed with “IC50” values were assayed secondarily after initially being identified in the high throughput screen. Each value represents a separate calculation of reporter inhibition based upon the high throughput robotic screening platform. The actual IC50 values are calculated and represent an estimate of the potency of each compound. This assay is not considered to be accurate below a concentration of 10 nM. Compounds classified with “mild” activity inhibited the XBP1-luciferase reporter by 10-30%. Compounds classified with “moderate” activity inhibited the XBP1-luciferase reporter by 30-75%. Compounds classified with “potent” activity inhibited the XBP1-luciferase reporter by 75-100%. Compounds classified with “undetected” activity inhibited the XBP1-luciferase reporter by less than 10% under the defined conditions.

XBP-1 splicing = test: Bioluminescence imaging of XBP-1 splicing in HT1080 XBP-1s-luciferase tumors; assay type: in vivo; settings: for toxicity: nude mice
Method: Several nude mice were implanted with HT1080 cells stably expressing a XBP-1s-luciferase construct and XBP-1 activation was examined using bioluminescence imaging. Imaging was performed using the In Vivo Imaging System (IVIS, Xenogen Corporation, Alameda, Calif.) in the Stanford Center for Innovation in In Vivo Imaging (SCI3). This device consists of a cooled CCD camera mounted on a light-tight specimen chamber.

[2] = tested on: 5×-UPRE luciferase reporter (XBP-1s); test: 5×-UPRE luciferase reporter assay, HT1080 cells; assay type: cell-based, human; settings: Tm alone
Method: (§1) HT1080 cells stably expressing the XBP-luciferase construct were grown in 60 mm dishes to 60-70% confluency. Following hypoxia treatment, cells were washed twice with PBS, lysed in 400 μl 1× reporter lysis buffer (RLB) (Promega, Madison Wis.) for 30 min at 24° C. Lysates (100 μl) were mixed with an equal volume of luciferase substrate (Promega), and assayed using a luminometer. For 5×-UPRE-luciferase reporter assays, cells were co-transfected with the appropriate reporter plasmid and a control plasmid (pSV40-beta-gal) using Lipofectamine 2000 (Invitrogen, San Diego, Calif.). Twenty-four hours after transfection, fresh media was added, and cells were treated with Tm or shifted to hypoxia. After treatment, cells were lysed in 1×RLB and analyzed for luciferase activity as described above. Beta-galactosidase activity was determined using the beta-galactosidase enzyme assay system (Promega).
A. XBP-luciferase reporter construct. Firefly luciferase was inserted downstream of the IRE1α splice site in human XBP-1 to enable the conditional translation of luciferase under ER stress in an IRE1α-dependent manner. B. Selective inhibition of the XBP-luciferase reporter by irestatin 9389. HT1080 human fibrosarcoma cells stably expressing the XBP-luciferase reporter or CMV-luciferase were cultured in the presence of Tm (4 μg/ml) and Tg (0.4 μM) and irestatin 9389 at the indicated concentrations. After 24 hours, luciferase activity was analyzed in an automated plate reader. For each cell line, values are expressed as the percent inhibition of the median for Tm/Tg-treated wells, corrected for background. C. Structure of irestatin 9389. […] Values are expressed as the fold increases over uninduced levels. […] Cells were harvested, lysed, and analyzed by immunoblotting with antisera specific for HIF-1α (top), XBP-1s (middle) or actin (bottom). […] Total RNA was analyzed by Northern blotting using radiolabeled probes specific for P58^IPK or DER-1. […]
Since these assays employed a chimeric XBP-luciferase substrate, we next determined whether irestatin 9389 could inhibit the function of endogenous XBP-1s. […]

Grp78 = test: Western immunoblot of Grp78, HT1080 cells; assay type: cell-based, human; settings: Tm (5 μg/ml) for 8 hours, positive control
Method: Cells (2×10^6) were cultured in 10-cm dishes, collected using a cell scraper at 4° C., and lysed by addition of 150 μl cell lysis buffer [50 mM Tris pH 7.4, 150 mM NaCl, 10% glycerol, 0.5% Triton X-100. 0.5% NP-40, 2 mM Na3VO4, 20 mM beta-glycerophosphate, 10 mM NaF, 1 mM DTT, 1 mM PMSF). Lysates were centrifuged for 5 min at 10,000×g, and proteins (˜40 μg) were resolved by SDS-PAGE followed by semi-dry transfer to nitrocellulose membranes. Membranes were blocked in TBS-5% milk supplemented with 0.1% Tween-20. The blots were then probed overnight with relevant antibodies, washed, and incubated for 2 hours with species-specific secondary antibodies conjugated to horseradish peroxidase. After washing in block solution, immunoreactive material was detected by enhanced chemiluminescence (SuperSignal West Dura Extended, Pierce, Inc., Rockville, Ill.).
HT1080 cells were exposed to DMSO vehicle (lane 1), irestatin 9389 (2.5 μM; lane 2) for 16 hours or Tm (5 μg/ml; lane 3) for 8 hours. Following treatments, cells were harvested, lysed, and analyzed by immunoblotting using anti-Grp78 antibody (top) or anti-actin (bottom) as a loading control. […] Cell lysates were analyzed by Western immunoblotting using anti-IRE1α (bottom) or anti-phospho-IRE1α antibodies (top). […] Lysates were analyzed by Western blot using antisera specific for phospho-JNK1 (top) or total JNK1 (bottom). […]

XBP-luciferase reporter = XBP-luciferase reporter assay under Tm or hypoxia, HT1080 cells; assay type: cell-based, human; settings: Tm alone, 24 hours
Method: as §1
A. XBP-luciferase reporter construct. Firefly luciferase was inserted downstream of the IRE1α splice site in human XBP-1 to enable the conditional translation of luciferase under ER stress in an IRE1α-dependent manner. B. Selective inhibition of the XBP-luciferase reporter by irestatin 9389. HT1080 human fibrosarcoma cells stably expressing the XBP-luciferase reporter or CMV-luciferase were cultured in the presence of Tm (4 μg/ml) and Tg (0.4 μM) and irestatin 9389 at the indicated concentrations. After 24 hours, luciferase activity was analyzed in an automated plate reader. For each cell line, values are expressed as the percent inhibition of the median for Tm/Tg-treated wells, corrected for background. C. Structure of irestatin 9389. D. XBP-luciferase reporter assay. HT1080 cells stably expressing the XBP-luciferase reporter were exposed to Tm (4 μg/ml) for 24 hours or hypoxia (0.1% oxygen) for 24 or 48 hours, in the presence of DMSO or irestatin 9389 (1 μM) as indicated. Values are expressed as the fold increases over uninduced levels. E. 5×-UPRE reporter assay. HT1080 cells were co-transfected with 5×-UPRE luciferase and SV40-beta-gal reporter plasmids, followed by exposure to Tm or hypoxia as in D. For each condition, luciferase activity is normalized to beta-galactosidase expression levels as an internal control for transfection efficiency. F. Western immunoblot analysis of XBP-1s. HT1080 cells were left untreated (lane 2) or exposed to Tm (4 μg/ml) for 20 hours in the presence of DMSO vehicle (lane 1) or the indicated irestatins (2 μM; lanes 3-6). […] Cells were harvested, lysed, and analyzed by immunoblotting with antisera specific for HIF-1α (top), XBP-1s (middle) or actin (bottom). […] Total RNA was analyzed by Northern blotting using radiolabeled probes specific for P58^IPK or DER-1. […]

Cc1cn2cc(-c3ccc4ccccc4c3)nc2s1 [Compound 9337]
tumor growth [1]: significant tumor growth was observed in untreated mice, but not in mice treated with the irestatins

Cc1cc2nc(NC(=O)CCCC(=O)O)sc2cc1C [Compound 3611]
tumor growth [1]: significant tumor growth was observed in untreated mice, but not in mice treated with the irestatins

N#Cc1cccc(NC(=O)c2sc3nc4c(c(C(F)(F)F)c3c2N)CCC4)c1 [Compound 8878]
% Inh (XBP1-luciferase reporter; Assay IRE IC50, Conc 20 uM): 72.4% and 50.0%

Nc1ccc(-c2ccc(-c3ccc(N)cc3)c(N)c2)cc1 [Compound 3281]
toxicity (XBP-1 splicing; 50 mg/kg IP): no apparent toxicity | XBP-1 splicing activity (bioluminescence) (XBP-1 splicing; 50 mg/kg IP, 8 hrs after injection): undetectable | XBP-1 splicing (bioluminescence) (XBP-1 splicing; 8 hrs after a second injection): again inhibited

tunicamycin [Tm, reference compound]
increase of 5×-UPRE luciferase activity over untreated cells [2]: ~12 fold | Grp78 levels (Grp78): robustly induced Grp78 | increase of XBP-luciferase activity (XBP-luciferase reporter): 60 fold

CN1CCN(c2ccc3sc4ccccc4c(=O)c3c2)CC1 [Compound 1401]
tumor growth [1]: significant tumor growth was observed in untreated mice, but not in mice treated with the irestatins

Cc1csc(NC(=O)c2sc3nc4c(c(C(F)(F)F)c3c2N)CCCC4)n1 [Compound 4335]
% Inh (XBP1-luciferase reporter; Assay IRE IC50, Conc 20 uM): 70.4%

Cc1cccc(NC(=O)c2sc3nc(C)cc(C(F)(F)F)c3c2N)n1 [Compound 2750]
% Inh (XBP1-luciferase reporter; Assay HTS, Conc 10 uM): 16.6%

Cc1csc(NC(=O)c2sc3nc4c(c(C(F)(F)F)c3c2N)CCC4)n1 [Compound 5500]
toxicity (XBP-1 splicing; 50 mg/kg IP): no apparent toxicity | effect on XBP-1 splicing (bioluminescence) (XBP-1 splicing; 50 mg/kg IP, at the time points assayed): did not have any affect on XBP-1 splicing | % Inh (XBP1-luciferase reporter; Assay IRE IC50, Conc 20 uM): 104.4%
